“Also recorded” adds a separate entry of the source.
How the values were obtained:
[1] = biological target: T1, T. brucei GlcNAc-PI de-N-acetylase (Trypanosoma brucei brucei, UniProt Q8I8A5); details: previous studies; cited from earlier work
[2] = biological target: T1, T. brucei GlcNAc-PI de-N-acetylase; assay: Substrate recognition (de-N-acetylation turnover) in T. brucei cell-free system, LC-MS/MS assay; type: biochemical; details: for Turnover: conversion of N-acetylated compound to free amine, 37 °C, 1 h, ND = turnover not detected, for 53 measured via d6-Ac2O derivatisation of the free amine; for Relative turnover: turnover relative to α-D-GlcpNAc-PI (1); for Substrate activity: recognised and processed (in words): N-acetylated analogue as substrate of the de-N-acetylase
Experimental: [8],[10] The N-acetylated analogues of these compounds were prepared as previously described to give compounds 47–53 (Fig. 3).
Using LC-MS/MS, multiple reaction monitoring of characteristic transitions for the N-acetylated and corresponding amine form of each compound was used to directly measure the rate of conversion of the N-acetylated compound to the free amine (Table 1). As no suitable transition was identified for the amine form of 13, the enzymatic turnover was accessed by reacting any free amine formed with d 6-Ac2O, and measuring the formation of the d 3-N-acetylated form by LC-MS/MS.
The synthesis of 1-D-6-O-(2-amino-2-deoxy-α-D-glucopyranosyl)-myo-inositol 1-(octadecyl phosphate), (4, α-D-GlcpNH2-IPC18), [15] has been described previously. The corresponding N-acetyl derivate α-D-GlcpNAc-IPC18 (3) was prepared by treatment with acetic anhydride, [13] and the concentration of stock solutions determined by measurement of the inositol content by selected ion-monitoring GC-MS. Bloodstream form Trypanosome brucei (variant MITat1.4) were isolated and membranes (cell-free system) prepared as described previously and stored at –80 °C.
Substrate recognition assays were performed using 500 pmol of α-D-GlcpNAc-PI (1) in incorporation buffer (25 mM Tris pH 8.0, 50 mM KCl, 50 mM MnCl2) and varying amounts of trypanosome cell-free system (0–15 × 10^6 cell equivalents per assay) in 96-well plates containing 100 μL final volume, and incubated at 37 °C for 1 h. The reaction was quenched and the glycolipids enriched and analyzed by LC-MS/MS as described below.
(§1) Enrichment of glycolipids was performed in a 96-well plate format. Reactions were quenched by addition of 200 μL of 5% propan-1-ol, 5 mM NH4OAc, and the glycolipids were bound to C18 resin (50 mg Isolute Array cartridge), washed three times with 200 μL 5% propan-1-ol, 5 mM NH4OAc and eluted with 100 μL 40% propan-1-ol, 5 mM NH4OAc into a 96-well collection plate.
Prior to subsequent analysis, compound 13 was dried under nitrogen, resuspended in MeOH (100 μL) and any free amine reacted with excess d 6-Ac2O (1.5 μL) in the presence of pyridine (10 μL) for 15 min. The reaction was quenched with water (50 μL), dried under nitrogen and resuspended in 100 μL 40% propan-1-ol, 5 mM NH4OAc.
(§2) Glycolipids were analyzed by liquid chromatography coupled to an electrospray tandem mass spectrometer (LC-MS/MS). Samples (40 μL) were injected directly from a 96-well plate onto a 10 × 1 mm C18 column (ACE, […]) and then eluted using a binary gradient of 5–80% propan-1-ol in 5 mM NH4OAc (Dionex Ultimate 3000). The gradient consisted of 2 min 0% B, 2–4 min 0–100% B, 4–8 min 100%, 8–9 min 100–0% B, 9–10 min 0% B where buffer A consisted of 5% propan-1-ol, 5 mM NH4OAc and buffer B 80% propan-1-ol, 5 mM NH4OAc. The glycolipids were analysed on an electrospray triple quadrapole mass spectrometer (Micromass Quattro Ultima) in multiple reaction monitoring mode.
For each pseudodisaccharide analogue (7–12), standards of the N-acetylated compound and corresponding free amine were analyzed separately in order to identify unique transitions for use in subsequent multiple reaction monitoring experiments (Table 1). The ratio of the integrals for these transitions was used to calculate the percentage of substrate conversion to product in a given sample. For compound 13, standards of the N-acetylated compound and the d 3-N-acetylated form were analyzed separately and found to produce a common fragment for use in subsequent multiple reaction monitoring experiments.

[3] = biological target: T1, T. brucei GlcNAc-PI de-N-acetylase; assay: Inhibition of turnover of α-D-GlcpNAc-IPC18 (3) in T. brucei cell-free system, LC-MS/MS assay; type: biochemical; details: inhibition of turnover of 3; tested at 100 μM
Experimental: Since the majority of the compounds were not processed by the T. brucei GlcNAc-PI de-N-acetylase, we tested their ability to inhibit the turnover of the α-D-GlcpNAc-IPC18 (3) substrate by the T. brucei GlcNAc-PI de-N-acetylase in the LC-MS/MS assay.
Inhibition assays were performed in 96-well plates in 100 μL final volume, with 1% v/v DMSO with or without inhibitor. Trypanosome cell-free system (2.5 × 10^6 cell equivalents per assay) in incorporation buffer were added to wells containing 500 pmol α-D-GlcpNAc-IPC18 (3) with or without inhibitor and incubated at 37 °C for 1 h. The reaction was quenched and the glycolipids enriched and analyzed by LC-MS/MS as described below.
as §1, §2
For inhibition assays, the turnover of the substrate α-D-GlcpNAc-IPC18 (3) was used to calculate the percentage of substrate conversion to product in a given sample. Inhibitor IC50 values were calculated using a four-parameter fit of eight-point potency curves derived from three independent experiments, and are quoted with a standard deviation.

T. brucei GPI pathway = assay: Trypanosome cell-free system with [3H]-mannose labelling (HPTLC, fluorography); type: biochemical, Trypanosoma brucei
Excerpt: The ability of 49 and 48 to act as a substrate and inhibitor, respectively, of the T. brucei GPI pathway was confirmed using the trypanosome cell-free system with [^3H]-mannose labelling (Fig. 5). […] As these mannosylated compounds lack the inositol 2-OH group they cannot undergo inositol acylation, a prerequisite for the transfer of ethanolamine, and thus are not processed past the Man3-species.
Fig. 5 The trypanosome GPI biosynthesis in the cell-free system. A. The T. brucei cell-free system was incubated without exogenous substrate, with 1, α-D-GlcpNAc-PI (10 μM), or with 49 (100 μM) in the presence of GDP-[^3H]Mannose to stimulate the production of radiolabelled mannosylated GPI intermediates. B. Inhibition of the turnover of 3, α-D-GlcpNAc-IPC18 (10 μM), in the presence of 48 (100 μM). Glycolipid products were extracted, separated by high-performance thin-layer chromatography, and visualised by fluorography. DPM – dolichol-phosphate-mannose, M1 – Man1 species, M2 – Man2 species, M3 – Man3 species, A′ – EtNPMan3 species, where the identity and migration of the species depends on the glycolipid substrate employed.
The formation of GPI precursors is monitored by following the incorporation of [^3H]-mannose and then they were analysed using […] and fluorography as described previously.

T1 sequence (Q8I8A5 entry or part of it): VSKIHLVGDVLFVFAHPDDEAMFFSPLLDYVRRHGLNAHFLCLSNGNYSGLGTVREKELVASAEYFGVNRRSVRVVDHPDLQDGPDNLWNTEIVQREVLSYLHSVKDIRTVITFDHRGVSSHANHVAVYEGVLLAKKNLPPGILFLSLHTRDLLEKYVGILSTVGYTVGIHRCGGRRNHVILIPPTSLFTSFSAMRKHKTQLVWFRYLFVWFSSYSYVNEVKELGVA

SMILES	Inhibitory activity (in words) [3]	Substrate activity: recognised and processed (in words) [2]	further results
CCCCCCCCCCCCCCCC(=O)OCC(COP(=O)(O)OC1C(O)C(O)C(O)C(O)C1OC1OC(CO)C(O)C(O)C1NC(C)=O)OC(=O)CCCCCCCCCCCCCCC [Compound 1, 1-D-(2-acetamido-2-deoxy-α-D-glucopyranosyl)-myo-inositol 1-(1,2-di-O-hexadecanoyl-sn-glycerol 3-phosphate), reference compound]	–	–	Recognition and processing by the enzyme (in words) [1]: recognised and processed; Turnover [2]: 6.1 ± 0.9 pmol/10^6 cells equiv.; Relative turnover [2]: 100%
CCCCCCCCCCCCCCCCCCOP(=O)(O)OC1C(O)C(O)C(O)C(O)C1OC1OC(CO)C(O)C(O)C1NC(C)=O (stereo not shown) [Compound 3, reference compound]	–	–	Turnover [2]: 27.0 ± 6.0 pmol/10^6 cells equiv.; Relative turnover [2]: 450%
CCCCCCCCCCCCCCCC(=O)OC[C@H](COP(=O)(O)O[C@H]1[C@@H](O)[C@@H](O)[C@H](O)[C@@H](O)[C@@H]1O[C@H]1O[C@H](CO)[C@@H](O)[C@H](O)[C@H]1NC(C)=O)OC(=O)CCCCCCCCCCCCCCC [Compound 5]	–	–	Recognition and processing by the enzyme (in words) [1]: recognise and process
CCCCCCCCCCCCCCCC(=O)OC[C@H](COP(=O)(O)O[C@@H]1[C@H](O)[C@H](O)[C@@H](O)[C@H](O)[C@H]1O[C@@H]1O[C@H](CO)[C@@H](O)[C@H](O)[C@H]1NC(C)=O)OC(=O)CCCCCCCCCCCCCCC [Compound 6]	–	–	Recognition and processing by the enzyme (in words) [1]: recognised and processed; also recorded: recognise and process
CCCCCCCCCCCCCCCCCCOP(=O)(O)O[C@@H]1CCCC[C@H]1O[C@H]1O[C@H](CO)[C@@H](O)[C@H](O)[C@H]1NC(C)=O [Compound 47]	act as inhibitors	–	–
CCCCCCCCCCCCCCCCCCOP(=O)(O)O[C@@H]1CCCC[C@H]1O[C@@H]1O[C@H](CO)[C@@H](O)[C@H](O)[C@H]1NC(C)=O [Compound 48]	act as inhibitors	–	Inhibition of priming of the cell-free system with 3 (T. brucei GPI pathway; 3 (α-D-GlcpNAc-IPC18) at 10 μM, inhibitor at 100 μM): efficiently prevented
CCCCCCCCCCCCCCCC(=O)OC[C@H](COP(=O)(O)O[C@@H]1CCCC[C@H]1O[C@H]1O[C@H](CO)[C@@H](O)[C@H](O)[C@H]1NC(C)=O)OC(=O)CCCCCCCCCCCCCCC [Compound 49]	–	both recognised and processed	Turnover [2]: 1.3 ± 0.3 pmol/10^6 cells equiv.; Relative turnover [2]: 22%; Formation of mannosylated GPI intermediates on priming the cell-free system (T. brucei GPI pathway; 49 at 100 μM, GDP-[3H]Mannose, bands sensitive to jackbean α-mannosidase): three bands corresponding to the addition of 1–3 mannose residues
CCCCCCCCCCCCCCCC(=O)OC[C@H](COP(=O)(O)O[C@@H]1CCCC[C@H]1O[C@@H]1O[C@H](CO)[C@@H](O)[C@H](O)[C@H]1NC(C)=O)OC(=O)CCCCCCCCCCCCCCC [Compound 50]	neither a substrate nor an inhibitor	neither a substrate nor an inhibitor	–
CCCCCCCCCCCCCCCCCCS(=O)(=O)N[C@@H]1CCCC[C@H]1O[C@@H]1O[C@H](CO)[C@@H](O)[C@H](O)[C@H]1NC(C)=O [Compound 51]	inability	inability	–
CCCCCCCCCCCCCCCCCCS(=O)(=O)N[C@@H]1CCCC[C@H]1O[C@H]1O[C@H](CO)[C@@H](O)[C@H](O)[C@H]1NC(C)=O [Compound 52]	inability	inability	–
CCCCCCCCCCCCCCCCCCOP(=O)(O)O[C@@H]1CCCC[C@H]1OCC(CO)NC(C)=O (stereo partly shown) [Compound 53]	inactivity	inactivity	–

From publication PMC4326964, “Probing the substrate specificity of Trypanosoma brucei GlcNAc-PI de-N-acetylase with synthetic substrate analogues” (Organic & Biomolecular Chemistry, 2014)
